Source: US10195156B2, “Compounds and compositions for intracellular delivery of agents” (ModernaTX, Inc., priority 2015, dated 2019)

Assays:
IL-6 = assay: Cytokine production induced by sample formulations: IL-6; format: in vivo; details: mice, i.v., 0.5 mpk, 6 hours; for IL-6: in pg/mL (unit assumed)
From the text: (§1) The introduction of foreign material into a mammalian body induces an innate immune response that promotes cytokine production. Such immune responses to, for example, nanoparticle compositions including therapeutic and/or prophylactic agents, are undesirable. The induction of certain cytokines is thus measured to evaluate the […] of nanoparticle compositions. The concentrations of various cytokines in mice upon intravenous administration of nanoparticle compositions presented in Tables 1, 1a, 17-1, 19-1, 20-1 and 21-1 at a dosage of 0.5 mpk was measured at 6 hours. The standard MC3 formulation and a PBS control were also tested.

[1] = Particle size and polydispersity index of nanoparticle compositions (Zetasizer Nano ZS); format: physicochemical; details: for particle size, rank within the named table (in words): comparison amongst compositions
How it was run: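 Values are size and PDI readings from a Zetasizer Nano ZS. Measurements are taken in 1×PBS; zeta potential, by contrast, uses 15 mM PBS.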

[2] = system: modified luciferase expression; assay: Expression of Luc in different organs (liver, lung, spleen, femur) 6 hours after intravenous administration; format: in vivo; details: i.v., 0.5 mpk
Experimental: The efficacy of the nanoparticle compositions presented in Tables 1, 1a, 17-1, 19-1, 20-1 and 21-1 was further evaluated by measuring the expression of modified luciferase in the liver, lung, spleen, and femur upon administration of a given composition. Formulations were administered intravenously to mice (n=3) at a dosage of 0.5 mpk and bioluminescence measured after 6 hours. The standard MC3 formulation and a PBS control were also tested.

[3] = Encapsulation efficiency of RNA (QUANT-IT RIBOGREEN RNA assay); format: physicochemical
How it was run: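 RiboGreen fluorescence (ex ~480, em ~520 nm) measured after 15 min at 37 °C on samples at ~5 μg/mL in TE, pH 7.5, ± 2% Triton X-100 solution. After blank subtraction, free RNA is given as intact-sample signal divided by disrupted-sample signal.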

[4] = system: luciferase (Luc) mRNA expression; assay: Expression of Luc induced by sample formulations, whole-body bioluminescence after intravenous administration; format: in vivo; details: mice, i.v., 0.5 mg/kg
How it was run: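 Read-out is whole-body bioluminescence at 3, 6 and 24 h after a single intravenous dose of 0.5 mg/kg Luc mRNA in nanoparticle formulations. Groups of n=6 mice; PBS and standard MC3 formulation as references.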

IP-10 = assay: Cytokine production induced by sample formulations: IP-10; format: in vivo; details: mice, i.v., 0.5 mpk, 6 hours, in pg/mL (unit assumed)
From the text: as §1

[5] = pKa of nanoparticle compositions; format: physicochemical
[6] = Table 1, rows without footnote mark
[7] = Table 1, rows without footnote mark (lipid:DOPE:cholesterol:PEG-DMG 40:20:38.5:1.5, Luc mRNA; MC3 standard formulation)

Structure (SMILES)	IL-6 (IL-6; Table 17-4)	PDI ([1]; Table 17-1)	Size (nm) ([1]; Table 17-1)	Total Flux Liver ([2]; Table 17-3, mice)	Total Flux Lung ([2]; Table 17-3, mice)	Total Flux Spleen ([2]; Table 17-3, mice)	EE (%) ([3]; Table 17-1)	Total Flux 3 hours ([4]; Table 17-2, 3 hours)	Total Flux 6 hours ([4]; Table 17-2)	Total Flux 24 hours ([4]; Table 17-2)	IP-10 (IP-10; Table 17-4)	pKa ([5]; Table 17-1)	particle size, rank within the named table (in words) [1]	IL-6 (IL-6; Table 4)	PDI [1, 6]	Size (nm) [1, 7] [nm]	Total Flux Femur ([2]; Table 3, mice)	Total Flux Liver ([2]; Table 3, mice)	Total Flux Lung ([2]; Table 3, mice)	Total Flux Spleen ([2]; Table 3, mice)	also measured
CCCCC/C=C\C/C=C\CCCCCCCCN(CCCCCCCC/C=C\C/C=C\CCCCC)CCOC [Compound 17-9, (9Z,12Z)—N-(2-Methoxyethyl)-N-((9Z,12Z)-octadeca-9,12-dien-1-yl)octadeca-9,12-dien-1-amine]	35.2	0.138	87.1	1.39E+06	1.40E+04	3.72E+05	95.0	6.87E+06	9.97E+06	3.43E+05	112	4.93	–	–	–	–	–	–	–	–	Total Flux Femur ([2]; Table 17-3, mice): 2.29E+04
CCCCCCCCCN(CCO)CCCCCCCCC [Compound 17-10, 2-(Dinonylamino)ethan-1-ol]	7.33	0.239	165.0	2.00E+05	2.52E+04	1.74E+04	30.3	6.61E+05	1.16E+06	4.06E+05	243	2.85	largest particles	–	–	–	–	–	–	–	IL-6 induction, rank within the named table (in words) (IL-6): lowest IL-6 levels; encapsulation efficiency, rank within the named table (in words) ([3]; comparison amongst compositions): did not encapsulate RNA with high efficiency
CCCCCCCCCCCCN(CCCO)CCCCCCCCCCCC [Compound 17-12, 3-(Didodecylamino)propan-1-ol]	83.1	0.148	76.1	4.94E+05	4.89E+04	7.81E+04	95.04	2.94E+06	2.54E+06	4.66E+05	148	6.83	smallest particles	–	–	–	–	–	–	–	–
CCCCCCCCCCCCN(CCCCO)CCCCCCCCCCCC [Compound 17-13, 4-(Didodecylamino)butan-1-ol]	84.3	0.176	90.4	3.56E+05	4.66E+04	1.90E+05	89.22	1.10E+06	1.80E+06	7.95E+05	222	6.89	–	–	–	–	–	–	–	–	–
CCCCCCCCCN(CCCCCCCCC)CCN(CCCCCCCCC)CCN1CCN(CCN(CCCCCCCCC)CCCCCCCCC)CC1 [Compound 18, N^1-(2-(4-(2-(Dinonylamino)ethyl)piperazin-1-yl)ethyl)-N^1,N^2,N^2-trinonylethane-1,2-diamine]	–	–	–	–	–	–	–	–	–	–	–	–	–	263	0.120	76.7	3.31E+06	3.91E+09	1.87E+07	1.60E+07	EE (%) [3, 6]: 98.4%; Total Flux 3 hours ([4]; Table 2, 3 hours): 2.13E+10; Total Flux 6 hours ([4]; Table 2): 1.76E+10; Total Flux 24 hours ([4]; Table 2): 7.00E+08; total flux after 3 hours, rank within the named table (in words) ([4]; 3 hours): highest flux after 3 hours; IP-10 (IP-10; Table 4): 655; pKa [5, 6]: 6.17
CCCCCCCCCCCCN(CCCCCCCCCCCC)CCN1CCN(CCN(CCCCCCCCC)CCN(CCCCCCCCC)CCCCCCCCC)CC1 [Compound 19, N^1-(2-(4-(2-(Didodecylamino)ethyl)piperazin-1-yl)ethyl)-N^1,N^2,N^2-trinonylethane-1,2-diamine]	–	–	–	–	–	–	–	–	–	–	–	–	–	70	0.100	76.1	2.75E+06	1.89E+09	2.27E+06	8.28E+06	EE (%) [3, 6]: 97.2%; Total Flux 3 hours ([4]; Table 2, 3 hours): 1.06E+10; Total Flux 6 hours ([4]; Table 2): 6.52E+09; Total Flux 24 hours ([4]; Table 2): 2.65E+09; IP-10 (IP-10; Table 4): 2326; pKa [5, 6]: 6.29
